Laboratory results from the supplement of paper PMC10307832.

Tests used:
Assay in all cases: relative viability (nuclei count vs DMSO), 5 days (fraction); higher = more cells survive
Venetoclax + Tozasertib = compound: CC1(C)CCC(CN2CCN(c3ccc(C(=O)NS(=O)(=O)c4ccc(NCC5CCOCC5)c([N+](=O)[O-])c4)c(Oc4cnc5[nH]ccc5c4)c3)CC2)=C(c2ccc(Cl)cc2)C1 [Venetoclax] + Cc1cc(Nc2cc(N3CCN(C)CC3)nc(Sc3ccc(NC(=O)C4CC4)cc3)n2)n[nH]1 [Tozasertib] (partner 0.1 µM)
Outline: (§1)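 Lung cancer cell lines in 1536-well plates were dosed by pin tool the day after seeding, either with one drug alone or with a fixed anchor-drug dose plus five library-drug doses (not always all listed) in √10 steps. After 5 days, cells were fixed and their nuclei stained in one step (final 0.05% Triton X-100, 1% formaldehyde, 1 ug/ml Hoechst), then counted on 4× images. Relative viability is the nuclei count in treated wells divided by that in vehicle wells. Values are medians of duplicate plates.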

Venetoclax + Foretinib = compound: CC1(C)CCC(CN2CCN(c3ccc(C(=O)NS(=O)(=O)c4ccc(NCC5CCOCC5)c([N+](=O)[O-])c4)c(Oc4cnc5[nH]ccc5c4)c3)CC2)=C(c2ccc(Cl)cc2)C1 [Venetoclax] + COc1cc2c(Oc3ccc(NC(=O)C4(C(=O)Nc5ccc(F)cc5)CC4)cc3F)ccnc2cc1OCCCN1CCOCC1 [Foretinib] (partner 0.25 µM)
Outline: as §1

Venetoclax + Navitoclax = compound: CC1(C)CCC(CN2CCN(c3ccc(C(=O)NS(=O)(=O)c4ccc(NCC5CCOCC5)c([N+](=O)[O-])c4)c(Oc4cnc5[nH]ccc5c4)c3)CC2)=C(c2ccc(Cl)cc2)C1 [Venetoclax] + CC1(C)CCC(c2ccc(Cl)cc2)=C(CN2CCN(c3ccc(C(=O)NS(=O)(=O)c4ccc(N[C@H](CCN5CCOCC5)CSc5ccccc5)c(S(=O)(=O)C(F)(F)F)c4)cc3)CC2)C1 [Navitoclax] (partner 0.5 µM)
Outline: as §1

Venetoclax + Trametinib = compound: CC1(C)CCC(CN2CCN(c3ccc(C(=O)NS(=O)(=O)c4ccc(NCC5CCOCC5)c([N+](=O)[O-])c4)c(Oc4cnc5[nH]ccc5c4)c3)CC2)=C(c2ccc(Cl)cc2)C1 [Venetoclax] + CC(=O)Nc1cccc(-n2c(=O)n(C3CC3)c(=O)c3c(Nc4ccc(I)cc4F)n(C)c(=O)c(C)c32)c1 [Trametinib] (partner 0.02 µM)
Outline: as §1

Question: Which results are given for UMC-11?
Answer: relative viability (Venetoclax + Tozasertib; first compound 0.01 µM): 0.205; relative viability (Venetoclax + Tozasertib; first compound 0.03162 µM): 0.213; relative viability (Venetoclax + Tozasertib; first compound 0.1 µM): 0.2; relative viability (Venetoclax + Tozasertib; first compound 0.3162 µM): 0.191; relative viability (Venetoclax + Tozasertib; first compound 1 µM): 0.187; relative viability (Venetoclax + Foretinib; first compound 0.01 µM): 1.08; relative viability (Venetoclax + Foretinib; first compound 0.03162 µM): 1.05; relative viability (Venetoclax + Foretinib; first compound 0.1 µM): 1.01; relative viability (Venetoclax + Foretinib; first compound 0.3162 µM): 0.961; relative viability (Venetoclax + Foretinib; first compound 1 µM): 0.913; relative viability (Venetoclax + Navitoclax; first compound 0.01 µM): 0.307; relative viability (Venetoclax + Navitoclax; first compound 0.03162 µM): 0.31; relative viability (Venetoclax + Navitoclax; first compound 0.1 µM): 0.255; relative viability (Venetoclax + Navitoclax; first compound 0.3162 µM): 0.284; relative viability (Venetoclax + Navitoclax; first compound 1 µM): 0.249; relative viability (Venetoclax + Trametinib; first compound 0.01 µM): 0.674; relative viability (Venetoclax + Trametinib; first compound 0.03162 µM): 0.74; relative viability (Venetoclax + Trametinib; first compound 0.1 µM): 0.713; relative viability (Venetoclax + Trametinib; first compound 0.3162 µM): 0.664; relative viability (Venetoclax + Trametinib; first compound 1 µM): 0.749
